Patent US7091204B2, “Sulfonamides” (SmithKline Beecham Corporation, priority 2001, dated 2006)

Target: T1, human and rat GPR-14 (UniProt Q9UKP6)
T1 sequence (Q9UKP6 1-389): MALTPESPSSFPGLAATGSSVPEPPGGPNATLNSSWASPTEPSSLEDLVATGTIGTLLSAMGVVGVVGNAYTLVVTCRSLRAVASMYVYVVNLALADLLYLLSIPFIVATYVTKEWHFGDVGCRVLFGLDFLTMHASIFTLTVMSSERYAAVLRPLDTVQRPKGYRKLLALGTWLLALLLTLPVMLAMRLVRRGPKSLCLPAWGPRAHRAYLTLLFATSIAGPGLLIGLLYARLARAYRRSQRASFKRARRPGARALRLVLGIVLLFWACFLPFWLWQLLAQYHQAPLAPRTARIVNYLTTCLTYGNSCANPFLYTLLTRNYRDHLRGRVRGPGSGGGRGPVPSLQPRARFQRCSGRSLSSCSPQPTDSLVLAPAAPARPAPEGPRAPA
Assay: Radioligand binding: [125I] h-U-II binding to HEK-293 cell membranes
Settings: HEK-293 cell membranes with stable cloned GPR-14; 200 pM [125I] h-U-II; species for the value not stated
Experimental: HEK-293 cell membranes containing stable cloned human and rat GPR-14 (20 ug/assay) were incubated with 200 pM [125I] h-U-II (200 Ci/mmol^−1 in the presence of increasing concentrations of test compounds in DMSO (0.1 nM to 10 uM), in a final incubation volume of 200 ul (20 mM Tris-HCl, 5 mM MgCl2). Incubation was done for 30 minutes at room temperature followed by filtration GF/B filters with Brandel cell harvester. ^125I labeled U-II binding was quantitated by gamma counting. Nonspecific binding was defined by ^125I U-II binding in the presence of 100 nM of unlabeled human U-II. Analysis of the data was performed by nonlinear least square fitting.

Ki: 590 nM
Structure (SMILES): CN1CC[C@@H](Oc2cc(NS(=O)(=O)c3cnc(Cl)nc3OCC(F)(F)F)ccc2Cl)C1 [Example 14, 2-Chloro-4-(2,2,2-trifluoro-ethoxy)-pyrimidine-5-sulfonic acid [4-chloro-3-((R)-1-methyl-pyrrolidin-3-yloxy)-phenyl]-amide]
